Results as given in publication PMC9329436, “Optimization of the 4-anilinoquin(az)oline scaffold as epidermal growth factor receptor (EGFR) inhibitors for chordoma utilizing a toxicology profiling assay platform” (Scientific Reports, 2022).
Like-named read-outs stand apart in the source and are kept apart here.

Columns and labels:
Assay type in all cases: biochemical
[1] = biological target: 320 wild-type protein kinases (Homo sapiens, UniProt P04629); details: kinase TRK-A, singlicate
Source text: (§1) Table S4. Profiling of two compounds at two concentrations against 320 wild-type protein kinases; singlicate measurement; Residual activities (% of control).

[2] = biological target: 320 wild-type protein kinases (Homo sapiens, UniProt P49759); details: singlicate
Chain of 320 wild-type protein kinases (Homo sapiens, UniProt P49759) (P49759 whole entry): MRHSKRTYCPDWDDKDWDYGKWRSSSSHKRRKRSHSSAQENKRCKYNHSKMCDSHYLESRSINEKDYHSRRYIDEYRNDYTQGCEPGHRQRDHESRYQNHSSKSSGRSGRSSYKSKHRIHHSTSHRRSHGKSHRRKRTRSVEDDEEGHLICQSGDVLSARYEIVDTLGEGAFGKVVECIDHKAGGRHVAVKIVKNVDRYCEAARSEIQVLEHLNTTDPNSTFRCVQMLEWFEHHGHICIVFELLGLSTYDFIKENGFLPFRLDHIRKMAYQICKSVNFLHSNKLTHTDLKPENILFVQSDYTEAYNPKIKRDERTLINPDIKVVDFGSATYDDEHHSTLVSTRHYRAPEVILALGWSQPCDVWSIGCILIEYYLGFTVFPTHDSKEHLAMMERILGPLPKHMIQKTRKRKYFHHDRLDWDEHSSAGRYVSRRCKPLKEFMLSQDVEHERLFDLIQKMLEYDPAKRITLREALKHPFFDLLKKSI
Source text: as §1

[3] = biological target: 320 wild-type protein kinases (Homo sapiens, UniProt Q04759); details: PKC-theta, singlicate
Source text: as §1

[4] = biological target: 320 wild-type protein kinases (Homo sapiens, UniProt P78527); details: DNA-PK, singlicate
Chain of 320 wild-type protein kinases (Homo sapiens, UniProt P78527) (P78527 whole entry): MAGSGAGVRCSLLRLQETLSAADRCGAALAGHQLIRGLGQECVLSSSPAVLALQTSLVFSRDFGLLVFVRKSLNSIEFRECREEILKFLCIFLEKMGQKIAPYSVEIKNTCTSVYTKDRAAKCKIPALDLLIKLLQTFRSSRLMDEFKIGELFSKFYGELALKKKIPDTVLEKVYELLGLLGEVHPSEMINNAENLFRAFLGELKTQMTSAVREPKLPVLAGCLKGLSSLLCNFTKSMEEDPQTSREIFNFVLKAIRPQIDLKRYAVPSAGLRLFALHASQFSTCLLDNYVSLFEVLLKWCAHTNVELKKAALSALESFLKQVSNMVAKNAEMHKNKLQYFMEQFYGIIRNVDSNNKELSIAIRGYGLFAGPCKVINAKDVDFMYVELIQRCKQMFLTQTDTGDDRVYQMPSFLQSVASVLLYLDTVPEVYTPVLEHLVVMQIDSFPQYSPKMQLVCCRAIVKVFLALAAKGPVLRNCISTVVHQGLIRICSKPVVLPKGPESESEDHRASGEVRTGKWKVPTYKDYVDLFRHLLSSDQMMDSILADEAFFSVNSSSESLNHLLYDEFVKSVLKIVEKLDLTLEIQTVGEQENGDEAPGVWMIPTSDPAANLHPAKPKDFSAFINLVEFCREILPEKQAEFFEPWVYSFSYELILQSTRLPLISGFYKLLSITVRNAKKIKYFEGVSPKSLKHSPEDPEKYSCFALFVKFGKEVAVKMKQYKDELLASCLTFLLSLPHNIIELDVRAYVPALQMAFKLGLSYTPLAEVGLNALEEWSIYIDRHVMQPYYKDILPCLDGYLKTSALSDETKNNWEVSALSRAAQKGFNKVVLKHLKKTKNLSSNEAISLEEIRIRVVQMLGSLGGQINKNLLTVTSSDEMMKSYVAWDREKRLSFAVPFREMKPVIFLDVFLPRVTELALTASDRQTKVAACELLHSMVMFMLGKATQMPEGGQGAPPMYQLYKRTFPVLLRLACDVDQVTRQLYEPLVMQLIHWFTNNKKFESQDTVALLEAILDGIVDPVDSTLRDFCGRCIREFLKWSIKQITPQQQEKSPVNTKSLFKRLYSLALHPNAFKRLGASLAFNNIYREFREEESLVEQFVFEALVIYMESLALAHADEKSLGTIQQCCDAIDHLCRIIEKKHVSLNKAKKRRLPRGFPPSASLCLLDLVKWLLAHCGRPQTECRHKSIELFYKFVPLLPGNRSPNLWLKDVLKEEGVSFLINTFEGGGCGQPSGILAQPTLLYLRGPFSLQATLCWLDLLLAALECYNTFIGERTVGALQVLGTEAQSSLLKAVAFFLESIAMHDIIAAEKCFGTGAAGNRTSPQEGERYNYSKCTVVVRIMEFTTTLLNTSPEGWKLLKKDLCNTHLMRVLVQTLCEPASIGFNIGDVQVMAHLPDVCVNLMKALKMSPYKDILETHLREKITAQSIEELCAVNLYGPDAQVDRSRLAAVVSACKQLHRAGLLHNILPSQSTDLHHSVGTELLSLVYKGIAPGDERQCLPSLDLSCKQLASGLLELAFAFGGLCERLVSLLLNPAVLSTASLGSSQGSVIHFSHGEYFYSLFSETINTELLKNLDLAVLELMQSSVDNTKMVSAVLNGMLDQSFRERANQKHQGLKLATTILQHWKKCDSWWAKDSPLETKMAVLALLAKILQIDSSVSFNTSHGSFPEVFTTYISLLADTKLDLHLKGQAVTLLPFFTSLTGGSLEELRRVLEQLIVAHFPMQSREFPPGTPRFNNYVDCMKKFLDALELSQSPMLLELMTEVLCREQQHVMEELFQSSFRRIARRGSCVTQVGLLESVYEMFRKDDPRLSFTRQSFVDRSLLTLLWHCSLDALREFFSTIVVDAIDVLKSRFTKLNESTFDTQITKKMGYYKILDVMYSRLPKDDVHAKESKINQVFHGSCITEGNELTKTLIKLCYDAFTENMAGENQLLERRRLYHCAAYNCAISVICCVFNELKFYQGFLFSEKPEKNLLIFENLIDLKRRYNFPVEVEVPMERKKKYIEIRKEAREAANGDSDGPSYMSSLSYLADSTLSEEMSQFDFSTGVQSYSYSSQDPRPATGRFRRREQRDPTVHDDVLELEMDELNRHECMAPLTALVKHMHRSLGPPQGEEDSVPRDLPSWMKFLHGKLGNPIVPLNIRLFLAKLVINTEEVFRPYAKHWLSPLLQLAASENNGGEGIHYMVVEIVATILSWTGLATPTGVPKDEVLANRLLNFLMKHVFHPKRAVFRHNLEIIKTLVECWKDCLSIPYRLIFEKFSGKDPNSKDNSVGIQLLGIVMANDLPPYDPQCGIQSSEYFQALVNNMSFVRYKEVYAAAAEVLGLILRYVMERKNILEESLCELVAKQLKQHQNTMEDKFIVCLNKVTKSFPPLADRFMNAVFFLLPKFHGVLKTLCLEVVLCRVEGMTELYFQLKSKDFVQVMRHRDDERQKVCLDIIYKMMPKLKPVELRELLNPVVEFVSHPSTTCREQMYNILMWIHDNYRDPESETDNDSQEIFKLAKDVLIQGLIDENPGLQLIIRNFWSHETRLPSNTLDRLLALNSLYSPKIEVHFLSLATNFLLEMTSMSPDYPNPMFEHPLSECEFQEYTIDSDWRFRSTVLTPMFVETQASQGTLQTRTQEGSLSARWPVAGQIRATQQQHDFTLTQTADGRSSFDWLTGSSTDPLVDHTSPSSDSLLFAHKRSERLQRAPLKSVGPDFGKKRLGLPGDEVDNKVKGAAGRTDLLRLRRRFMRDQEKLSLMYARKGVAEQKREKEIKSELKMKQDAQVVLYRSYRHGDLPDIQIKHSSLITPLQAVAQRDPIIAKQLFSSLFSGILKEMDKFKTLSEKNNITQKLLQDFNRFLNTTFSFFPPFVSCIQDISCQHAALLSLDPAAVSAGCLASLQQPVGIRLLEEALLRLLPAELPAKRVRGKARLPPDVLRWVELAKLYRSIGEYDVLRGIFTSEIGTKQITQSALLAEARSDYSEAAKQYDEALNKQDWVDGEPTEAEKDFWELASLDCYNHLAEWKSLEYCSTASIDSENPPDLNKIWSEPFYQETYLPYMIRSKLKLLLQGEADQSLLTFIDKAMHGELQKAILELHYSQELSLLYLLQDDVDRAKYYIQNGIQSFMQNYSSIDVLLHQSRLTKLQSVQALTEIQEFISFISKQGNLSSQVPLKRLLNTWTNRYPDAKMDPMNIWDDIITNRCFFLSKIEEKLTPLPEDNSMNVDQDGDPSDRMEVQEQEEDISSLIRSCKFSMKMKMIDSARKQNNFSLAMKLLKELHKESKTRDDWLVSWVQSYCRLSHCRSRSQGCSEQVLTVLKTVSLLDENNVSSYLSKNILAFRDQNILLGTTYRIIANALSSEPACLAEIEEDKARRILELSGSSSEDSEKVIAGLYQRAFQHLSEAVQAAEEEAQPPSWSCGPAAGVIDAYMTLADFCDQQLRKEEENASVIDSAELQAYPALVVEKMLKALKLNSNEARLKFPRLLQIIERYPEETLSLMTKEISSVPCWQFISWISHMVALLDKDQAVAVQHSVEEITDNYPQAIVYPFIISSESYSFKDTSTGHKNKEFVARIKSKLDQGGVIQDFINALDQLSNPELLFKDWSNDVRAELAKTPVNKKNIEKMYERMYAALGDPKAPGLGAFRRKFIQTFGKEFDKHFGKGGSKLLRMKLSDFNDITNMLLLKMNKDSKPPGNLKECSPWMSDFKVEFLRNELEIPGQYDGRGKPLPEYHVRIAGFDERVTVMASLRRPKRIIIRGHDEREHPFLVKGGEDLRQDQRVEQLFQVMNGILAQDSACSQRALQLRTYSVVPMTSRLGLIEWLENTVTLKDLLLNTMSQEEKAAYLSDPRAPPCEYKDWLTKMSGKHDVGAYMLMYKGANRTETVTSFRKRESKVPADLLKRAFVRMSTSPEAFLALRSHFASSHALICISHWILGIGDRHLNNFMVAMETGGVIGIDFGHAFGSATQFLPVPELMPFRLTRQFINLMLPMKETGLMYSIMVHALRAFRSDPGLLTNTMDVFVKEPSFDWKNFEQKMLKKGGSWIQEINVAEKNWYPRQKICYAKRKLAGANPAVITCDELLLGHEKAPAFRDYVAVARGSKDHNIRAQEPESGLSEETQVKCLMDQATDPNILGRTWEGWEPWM
Source text: as §1

[5] = biological target: T1, 320 wild-type protein kinases (Homo sapiens, UniProt Q12851); details: singlicate
T1 sequence (Q12851 1-820): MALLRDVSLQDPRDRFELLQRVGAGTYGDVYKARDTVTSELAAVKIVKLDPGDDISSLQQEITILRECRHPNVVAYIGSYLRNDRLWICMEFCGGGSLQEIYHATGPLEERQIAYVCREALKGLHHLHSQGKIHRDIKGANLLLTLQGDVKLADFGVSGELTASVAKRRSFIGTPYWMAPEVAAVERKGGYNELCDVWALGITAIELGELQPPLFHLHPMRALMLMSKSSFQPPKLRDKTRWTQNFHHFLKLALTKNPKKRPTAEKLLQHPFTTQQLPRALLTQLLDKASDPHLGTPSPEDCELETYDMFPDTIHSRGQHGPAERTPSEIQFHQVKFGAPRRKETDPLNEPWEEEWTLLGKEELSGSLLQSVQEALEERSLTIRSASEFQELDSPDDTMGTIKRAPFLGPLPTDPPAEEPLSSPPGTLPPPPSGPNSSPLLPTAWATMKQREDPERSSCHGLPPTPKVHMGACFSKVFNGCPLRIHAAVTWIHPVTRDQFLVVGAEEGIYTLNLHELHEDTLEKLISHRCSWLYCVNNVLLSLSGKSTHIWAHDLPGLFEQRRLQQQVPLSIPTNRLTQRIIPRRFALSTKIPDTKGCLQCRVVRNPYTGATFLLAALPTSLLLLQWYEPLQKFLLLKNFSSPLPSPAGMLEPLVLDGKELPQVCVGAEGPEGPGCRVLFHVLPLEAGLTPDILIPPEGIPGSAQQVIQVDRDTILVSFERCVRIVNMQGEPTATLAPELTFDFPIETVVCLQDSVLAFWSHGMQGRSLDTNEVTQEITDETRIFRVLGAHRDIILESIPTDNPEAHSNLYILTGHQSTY
Source text: as §1

[6] = biological target: T2, 320 wild-type protein kinases (Homo sapiens, UniProt Q9UKI8); details: kinase TLK1, singlicate
T2 sequence (Q9UKI8 1-766): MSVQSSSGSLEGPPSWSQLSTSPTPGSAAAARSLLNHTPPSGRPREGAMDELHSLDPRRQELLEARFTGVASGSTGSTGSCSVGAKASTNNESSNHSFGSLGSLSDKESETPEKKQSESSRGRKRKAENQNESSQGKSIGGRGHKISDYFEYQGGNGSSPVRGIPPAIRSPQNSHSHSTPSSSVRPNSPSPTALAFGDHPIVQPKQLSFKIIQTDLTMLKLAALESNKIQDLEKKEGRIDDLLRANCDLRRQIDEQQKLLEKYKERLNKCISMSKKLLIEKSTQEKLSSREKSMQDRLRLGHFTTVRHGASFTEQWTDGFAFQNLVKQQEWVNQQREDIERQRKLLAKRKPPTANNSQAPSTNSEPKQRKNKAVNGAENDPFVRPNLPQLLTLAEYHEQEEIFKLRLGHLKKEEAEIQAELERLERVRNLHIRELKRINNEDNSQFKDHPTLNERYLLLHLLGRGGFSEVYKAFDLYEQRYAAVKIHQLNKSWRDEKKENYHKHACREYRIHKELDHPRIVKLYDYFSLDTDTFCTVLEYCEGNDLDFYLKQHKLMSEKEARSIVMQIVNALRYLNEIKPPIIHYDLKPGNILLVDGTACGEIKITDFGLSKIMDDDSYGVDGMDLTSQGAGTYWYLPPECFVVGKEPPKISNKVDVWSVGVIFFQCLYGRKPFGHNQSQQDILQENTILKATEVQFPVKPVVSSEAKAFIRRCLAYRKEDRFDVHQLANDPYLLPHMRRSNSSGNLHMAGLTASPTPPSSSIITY
Source text: as §1

[7] = biological target: T3, 320 wild-type protein kinases (Homo sapiens, UniProt O14965); details: Aurora-A, singlicate
T3 sequence (O14965 1-403): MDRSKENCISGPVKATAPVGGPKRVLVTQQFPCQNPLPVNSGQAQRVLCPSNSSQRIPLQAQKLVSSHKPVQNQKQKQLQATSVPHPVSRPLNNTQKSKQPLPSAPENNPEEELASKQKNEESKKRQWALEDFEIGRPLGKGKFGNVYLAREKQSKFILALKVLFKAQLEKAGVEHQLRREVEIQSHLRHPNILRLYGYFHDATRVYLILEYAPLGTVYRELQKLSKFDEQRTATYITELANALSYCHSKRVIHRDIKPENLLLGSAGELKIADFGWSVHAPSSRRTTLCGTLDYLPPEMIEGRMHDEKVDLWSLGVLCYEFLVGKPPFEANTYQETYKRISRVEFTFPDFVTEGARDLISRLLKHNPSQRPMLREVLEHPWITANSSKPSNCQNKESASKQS
Source text: as §1

[8] = biological target: 320 wild-type protein kinases (Homo sapiens, UniProt P00519); details: singlicate
Source text: as §1

[9] = biological target: 320 wild-type protein kinases (Homo sapiens, UniProt Q00526); details: singlicate
Source text: as §1

[10] = biological target: 320 wild-type protein kinases (Homo sapiens, UniProt P48730); details: CK1-delta, singlicate
Chain of 320 wild-type protein kinases (Homo sapiens, UniProt P48730) (P48730 whole entry): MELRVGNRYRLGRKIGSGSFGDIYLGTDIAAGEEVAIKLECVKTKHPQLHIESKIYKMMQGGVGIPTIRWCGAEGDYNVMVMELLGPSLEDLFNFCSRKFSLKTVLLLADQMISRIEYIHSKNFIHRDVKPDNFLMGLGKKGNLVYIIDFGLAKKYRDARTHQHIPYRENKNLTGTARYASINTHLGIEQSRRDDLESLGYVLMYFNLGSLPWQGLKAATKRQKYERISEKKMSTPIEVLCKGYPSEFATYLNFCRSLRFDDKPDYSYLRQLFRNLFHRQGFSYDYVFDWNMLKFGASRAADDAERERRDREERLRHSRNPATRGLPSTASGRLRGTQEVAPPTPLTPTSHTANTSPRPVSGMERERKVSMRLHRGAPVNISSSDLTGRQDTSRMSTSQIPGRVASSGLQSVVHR
Source text: as §1

Row | SMILES | Residual activity, TRK-A ([1]; assay conc. 1.0E-06 M) | Residual activity, TRK-A ([1]; assay conc. 1.0E-07 M) | Residual activity ([2]; CLK1, 1.0E-06 M) | Residual activity ([2]; CLK1, 1.0E-07 M) | Residual activity ([3]; 1.0E-06 M) | Residual activity ([3]; 1.0E-07 M) | Residual activity ([4]; 1.0E-06 M) | Residual activity ([4]; 1.0E-07 M) | Residual activity ([5]; MAP4K2, 1.0E-06 M) | Residual activity ([5]; MAP4K2, 1.0E-07 M) | Residual activity, TLK1 ([6]; assay conc. 1.0E-06 M) | Residual activity, TLK1 ([6]; assay conc. 1.0E-07 M) | Residual activity ([7]; 1.0E-06 M) | Residual activity ([7]; 1.0E-07 M) | Residual activity ([8]; ABL1, 1.0E-06 M) | Residual activity ([8]; ABL1, 1.0E-07 M) | Residual activity ([9]; CDK3/CycC, 1.0E-06 M) | Residual activity ([9]; CDK3/CycC, 1.0E-07 M) | Residual activity ([9]; CDK3/CycE1, 1.0E-06 M) | Residual activity ([9]; CDK3/CycE1, 1.0E-07 M) | other results
1 | C#Cc1cc(Nc2ncnc3cc(I)ccc23)ccc1Cl [Compound 41] | 107 % of control | 100 % of control | 89 % of control | 89 % of control | 102 % of control | 101 % of control | 100 % of control | 96 % of control | 94 % of control | 99 % of control | 100 % of control | 110 % of control | 81 % of control | 95 % of control | 72 % of control | 85 % of control | 87 % of control | 90 % of control | 96 % of control | 115 % of control | Residual activity ([10]; 1.0E-06 M): 115 % of control; Residual activity ([10]; 1.0E-07 M): 134 % of control
2 | C#Cc1cc(Nc2ncnc3cc(OC)c(OC)cc23)ccc1Cl [Compound 45] | 87 % of control | 106 % of control | 79 % of control | 102 % of control | 101 % of control | 109 % of control | 85 % of control | 108 % of control | 113 % of control | 105 % of control | 108 % of control | 112 % of control | 80 % of control | 99 % of control | 59 % of control | 100 % of control | 86 % of control | 92 % of control | 102 % of control | 117 % of control | Residual activity ([10]; 1.0E-06 M): 111 % of control; Residual activity ([10]; 1.0E-07 M): 129 % of control
